One may read the AC50 as the concentration giving half of the maximal activity seen.

Active and inactive are the calls of the source.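 How the source made its calls: active means AC50 no more than ten times the top concentration tested, that is within one log above it; inconclusive means flat curve fit with activity between 30% and 70%, or invalid poor fit; inactive means AC50 beyond ten times the top tested dose.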 Where only a bound is given, the exact number is not on record here.

The test relates to S. cerevisiae Mot1-301 ts growth rescue, BacTiter-Glo ATP luminescence. Nature of the test: growth rescue of Mot1-301 ts yeast, confirmation, SUMOylation pathway inhibitor project, whole organism, S. cerevisiae, Mot1-301 ts mutant, luminescence, dose retest (AID 463204).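 Further: growth at restrictive 38.5 degrees C of Mot1-301 OY566 strain; actives raise luminescence by restoring growth of the ts mutant at high temperature.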
For the molecule `N#Cc1cc([N+](=O)[O-])cnc1NCC(O)CO` (stereo unspecified), the AC50 is > 42 µM (inactive).
Take `Cc1ccc(NC(=O)N[C@H](C(=O)O)C(C)C)c(C)c1`: the AC50 is > 42 µM (inactive).
With `COc1cc(C(=O)Oc2cccnc2)cc(OC)c1OC`, the AC50 was > 42 µM (inactive).
For the molecule `CCCN(CCC)C(=O)CSc1ncccc1C(=O)O`, the AC50 was > 42 µM (inactive).
For the molecule `COc1cccc(CN2CCN(C(=O)c3cccc4ccccc34)CC2)c1OC`, the AC50 was > 42 µM (inactive).
The value for `Cc1ccc(NC(=O)CN(C)C(=O)c2cccc(Br)c2)cc1` was > 42 µM (inactive); that for `C=CSc1sc(Cl)c(N(C)C)c1[N+](=O)[O-]` was > 42 µM (inactive); that for `CCN(CC)C(=O)CSc1nnc(CNc2ccc(F)cc2)n1Cc1ccco1` was > 42 µM (inactive).
As for `Cn1cc(C(=O)Cc2ccccc2)c2ccccc21`, the AC50 was > 42 µM (inactive).
On to `C[C@@]12C(=O)Nc3cc(Cl)ccc3C(=O)N1[C@H]1c3ccccc3OC[C@@H]1[C@@H]2c1ccccc1`, for which the AC50 is 1.98 µM.
For the molecule `Cc1ccc(S(=O)(=O)N(C)CC(=O)O/N=C(\N)c2ccccn2)cc1`, the AC50 is > 42 µM (inactive).
The value for `O=C1Nc2ccccc2/C1=C/c1ccc([N+](=O)[O-])cc1` was > 42 µM (inactive); that for `CCCCNS(=O)(=O)c1ccc(OC)cc1` was > 42 µM (inactive); that for `COc1cccc(/C=N/NC(=O)CCn2cnc3ccccc32)c1` was > 42 µM (inactive).
Consider `CO/N=C/c1ccc(Oc2ccc(C)cc2)nc1`, for which the AC50 is > 42 µM (inactive).
In the case of `Cc1nn(CC(N)=O)c(=O)c2ccccc12`, the AC50 was > 42 µM (inactive).
For `O=C(O)C1C2CCCCC2=C2CCCCC2C1C(=O)c1ccccc1` (stereo unspecified), the AC50 was 3.26 µM.
`O=C(CSc1nnc(CNC(=O)c2ccccc2F)o1)NCCc1ccccc1`: the AC50 was > 42 µM (inactive).
As to `CC1(C)CC(=O)C(CC2CCCCC2=O)C(=O)C1` (stereo unspecified), the AC50 is > 42 µM (inactive).
For the molecule `COc1ccc(NC(=O)c2ccc(-c3csc(C)n3)cc2)cc1`, the AC50 was > 42 µM (inactive).
The value for `O=C(c1ccc(Br)cc1)C(CN1CCOCC1)c1ccccc1` (stereo unspecified) was 0.65 µM; that for `CC1=CC(C)(C)N2C(=O)C3(NCCc4c3[nH]c3ccccc43)c3cc(C)cc1c32` (stereo unspecified) was 5.51 µM; that for `O=C(Nc1ccc(F)cc1F)N1CCCN(c2ccc(C(F)(F)F)cn2)CC1` was > 42 µM (inactive).
As for `Cc1cc(=O)oc2ccc(OC(=O)CC(C)C)cc12`, the AC50 is > 42 µM (inactive).
As for `CN(C)c1ccnc2sc3c(NCC(O)CO)ncnc3c12` (stereo unspecified), the AC50 is > 42 µM (inactive).
Under `NS(=O)(=O)c1ccc(CCNC(=O)c2ccc([N+](=O)[O-])s2)cc1` stands > 42 µM (inactive); under `O=C(NCc1ccccc1Cl)c1ccc2c(c1)OCO2`, 30.4 µM.
The value for `CC(C)CC(c1nnnn1C1CCCCC1)N1CCN(C(=O)c2ccco2)CC1` (stereo unspecified) was > 42 µM (inactive); that for `CC(=O)c1cccc(NC(=O)CNC(=O)c2sc3ccccc3c2Cl)c1` was > 42 µM (inactive); that for `CC1CCN(CCCCOc2ccc(Cl)cc2)CC1` was > 42 µM (inactive).
Consider `N#Cc1c2ccc([N+](=O)[O-])cc2[n+]([O-])n1-c1ccccc1`, for which the AC50 was 2.9 µM.
With `O=C(COc1ccccc1)NCCS(=O)(=O)N1CCN(c2ccccc2)CC1`, the AC50 is > 42 µM (inactive).
As to `Cc1ccc(NC(=S)NNC(=O)c2ccc(N3CCOCC3)c([N+](=O)[O-])c2)cc1C`, the AC50 was > 42 µM (inactive).
With `CC1CCN(CCCCOc2cccc(Br)c2)CC1`, the AC50 is > 42 µM (inactive).
Turning to `O=C1NC2(CCCCC2)NN1c1ccccc1`, the AC50 was > 42 µM (inactive).
For the molecule `CCN1C(=NCCCCO)N[C@@H](c2cccc(C(F)(F)F)c2)C(C(=O)OC)=C1C`, the AC50 was > 42 µM (inactive).
Under `N=c1c2c(n(Cc3ccc(Cl)c(Cl)c3)c3c1CCC3)CCCC2` stands > 42 µM (inactive); under `CC(C)[N+]1(C)[C@@H]2CC[C@@H]1CC(OC(=O)C(CO)c1ccccc1)C2` (stereo partly specified), > 42 µM (inactive); under `NC(=O)CC(NC(=S)NCc1ccccc1)C(=O)O` (stereo unspecified), > 42 µM (inactive).
Take `CC(C)c1onc(C(=O)N(C)Cc2ccccc2)c1[N+](=O)[O-]`: the AC50 was > 42 µM (inactive).
Turning to `Cc1ccc(O)c(C(=O)CC(=O)c2cccc(F)c2)c1`, the AC50 is 20.7 µM.
With `Cc1cnc(C(=O)OC(C(=O)c2c[nH]c3ccccc23)c2ccccc2)cn1` (stereo unspecified), the AC50 is 29.4 µM.
Under `COc1cc2c(cc1OC)C(c1ccc(SC)cc1)CC(=O)N2` (stereo unspecified) stands > 42 µM (inactive); under `Cc1cc(NC(=O)c2ccc3c(c2)C(=O)N(C(C)(C)C)C3=O)no1`, > 42 µM (inactive).
The value for `COCCn1c(SCC(=O)Nc2nc3ccccc3s2)nnc1-c1ccoc1C` was > 42 µM (inactive).
In the case of `O=C(CCN1CCc2ccccc2C1)Nc1ccc2c(c1)OCO2`, the AC50 is > 42 µM (inactive).
`CC1(C)NC(=O)N(CC(=O)O)C1=O`: the AC50 is > 42 µM (inactive).
The value for `CC(=O)c1c(Nc2cccc(F)c2)oc(C)cc1=O` was > 42 µM (inactive); that for `O=C(C1CCCN(S(=O)(=O)c2cnc[nH]2)C1)N1CCN(c2ccc(Cl)cc2)CC1` (stereo unspecified) was > 42 µM (inactive); that for `CC(C)(C)CC(=O)Nc1cc(S(=O)(=O)N2CCOCC2)ccc1N1CCCC1` was > 42 µM (inactive).
Regarding `COc1ccc(S(=O)(=O)Nc2ccc(NC(C)=O)cc2)cc1OC`, the AC50 was > 42 µM (inactive).
On to `C/C(=N\N1CCN(Cc2ccccc2Cl)CC1)c1ccc([N+](=O)[O-])cc1`, for which the AC50 is > 42 µM (inactive).
In the case of `COc1cccc(-c2ocnc2C(=O)Nc2ccc3c(c2)CCC3)c1`, the AC50 is > 42 µM (inactive).
In the case of `CCOC(=O)N1CCN(C(=O)CNC(=O)c2nn(-c3ccc(OC)c(OC)c3)c(=O)c3ccccc23)CC1`, the AC50 is > 42 µM (inactive).
The value for `CCCCn1c2c(c(=O)n(C)c1=O)C(c1ccc(OC)cc1)N1CCCCCC1=N2` (stereo unspecified) was > 42 µM (inactive); that for `Cc1ccc(S(=O)(=O)N2CCOCC2)cc1NC(=O)COC(=O)CNC(=O)c1ccccc1` was > 42 µM (inactive).
As to `COc1cc(CNCc2ccc3c(c2)OCO3)c([N+](=O)[O-])cc1OC`, the AC50 is > 42 µM (inactive).
As for `CC(C)c1cc(N2CCOCC2)n2ncc(-c3ccccc3)c2n1`, the AC50 is > 42 µM (inactive).
On to `CCOc1ccc(S(=O)(=O)N2CCC(C(=O)N3CCN(c4ccccc4)CC3)CC2)cc1`, for which the AC50 was > 42 µM (inactive).
`CCCN1C(=O)c2[nH]nc(-c3cc(Cl)c(C)cc3O)c2C1c1ccc(O)c(OC)c1` (stereo unspecified): the AC50 was > 42 µM (inactive).
Under `Cc1sc2ncn(C(C)C(=O)OC3CCCCC3)c(=O)c2c1C` (stereo unspecified) stands > 42 µM (inactive).
The value for `Cc1ccc(C(C(=O)NC2CCCCC2)N(CCC(C)C)C(=O)CNC(=O)c2ccco2)o1` (stereo unspecified) was > 42 µM (inactive); that for `COc1cccc(C2C(C(C)=O)=C(O)C(=O)N2CCc2c[nH]c3ccccc23)c1` (stereo unspecified) was > 42 µM (inactive).
The value for `NC(=S)N/N=C/c1cccc(O)c1O` was > 42 µM (inactive); that for `Cc1ccc(Sc2cnccc2C#N)cc1` was > 42 µM (inactive); that for `CCN1CCN(CC(=O)N2N=CCC2c2ccccc2)CC1` (stereo unspecified) was > 42 µM (inactive).
Take `COc1cccc(NC(=S)NC(=O)c2cncc(Br)c2)c1`: the AC50 is > 42 µM (inactive).
As to `CC1=CC(=O)C=CC1(C)C(Cl)(Cl)Cl` (stereo unspecified), the AC50 is > 42 µM (inactive).
In the case of `CCCC(=O)N(CCN1CCOCC1)c1nc2ccc(OCC)cc2s1`, the AC50 is > 42 µM (inactive).
As for `CCCN1CCN(CCCNC(=O)CCn2nc(-c3ccccc3)ccc2=O)CC1`, the AC50 is > 42 µM (inactive).
On to `CC(C)(C)c1ccc(C(=O)NCCC(=O)N2CCN(c3ncccn3)CC2)cc1`, for which the AC50 was > 42 µM (inactive).
With `CCN(CC)/C(=N\S(=O)(=O)c1ccc(F)cc1)c1ccccc1`, the AC50 was > 21 µM (inactive).
For the molecule `Cc1ccc(C(=O)/C=C/Nc2ccccc2C(N)=O)cc1`, the AC50 is > 42 µM (inactive).
Regarding `COc1ccccc1N1CCN(C(=O)C(=O)N/N=C/c2ccccc2F)CC1`, the AC50 is > 42 µM (inactive).
In the case of `COc1cccc(/C=C2/C(=O)NN(c3ccc(Br)cc3)C2=O)c1O`, the AC50 was > 42 µM (inactive).
As to `Cc1nc(N/N=C\c2ccc3c(c2)OCO3)sc1C`, the AC50 is 33.5 µM.
Under `O=[N+]([O-])c1cncc([N+](=O)[O-])c1Nc1ccccc1Cl` stands 9.62 µM; under `COc1ccc(NC(=O)CSc2nnc(-c3ccccn3)n2-c2ccccc2)cc1OC`, > 42 µM (inactive); under `C/C(CC(=O)NC1CCCCC1)=N\NC(=O)Cc1ccc(-c2ccccc2)cc1`, > 42 µM (inactive).
Turning to `CCOC(=O)c1c(N)sc(C(=O)N2CCCC(C(N)=O)C2)c1C` (stereo unspecified), the AC50 was > 42 µM (inactive).
Consider `COc1ccc(S(=O)(=O)NC(C)C(=O)NCc2ccccn2)cc1Cl` (stereo unspecified), for which the AC50 is > 42 µM (inactive).
As to `CC(=O)c1cccc(NC(=O)CN(c2cccc(F)c2)S(C)(=O)=O)c1`, the AC50 is > 42 µM (inactive).
On to `COc1ccc(NC(=O)Cn2c(=O)cnc3ccccc32)cc1S(=O)(=O)N1CCCCC1`, for which the AC50 was > 42 µM (inactive).
Under `CC(=O)N1CCc2cc(S(=O)(=O)NCCC3=CCCCC3)ccc21` stands > 42 µM (inactive); under `COc1ccc(/C=C(\C#N)C(=O)c2cccn2C)cc1`, > 42 µM (inactive).
On to `Cc1ccc(C(=O)N/C(=C\c2cccs2)C(=O)NCc2ccncc2)cc1`, for which the AC50 was > 42 µM (inactive).
Under `c1ccc(-c2cc3cc4c(cc3cn2)OCO4)cc1` stands 11.7 µM; under `CCCCn1c(/C=N/Nc2nc3ccccc3[nH]2)nc2ccccc21`, 3.98 µM; under `CCOc1ccc(C(=O)Nc2ccc(C(F)(F)F)n(C)c2=O)cc1`, > 42 µM (inactive).
Turning to `COc1ccc(-c2noc(CSc3nc(-c4ccccc4)cc(=O)[nH]3)n2)cc1OC`, the AC50 was > 42 µM (inactive).
As for `Nc1ccc(N2CCN(c3ccc(F)cc3)CC2)cc1`, the AC50 was > 42 µM (inactive).

These data come from PubChem BioAssay AID463204 (Broad Institute, 2010).
